System: mutant Huntington (HTT) protein
Assay: HTT Mutant HTRF iPSC assay (mHTT protein lowering)
Format: cell-based
Settings: human iPSC derived from a HTT patient with a poly-Q49 mutation

SMILES | IC50
[2H]C([2H])([2H])N1CCN(c2ccc3cc(C(=O)Nc4cn5cc(C)nc5c(C)n4)sc3n2)CC1 [Compound 195, N-(2,8-dimethylimidazo[1,2-a]pyrazin-6-yl)-6-(4-(methyl-d3)piperazin-1-yl)thieno[2,3-b]pyridine-2-carboxamide] | < 100 nM
Cc1cn2cc(NC(=O)c3cc4ccc(N5C[C@@H]6CNC[C@@H]65)nc4s3)cc(F)c2n1 [Compound 196, 6-((1S,5R)-3,6-diazabicyclo[3.2.0]heptan-6-yl)-N-(8-fluoro-2-methylimidazo[1,2-a]pyridin-6-yl)thieno[2,3-b]pyridine-2-carboxamide] | < 100 nM
CNC1CN(c2ccc3cc(C(=O)Nc4cc(F)c5nc(C)cn5c4)sc3n2)C1 [Compound 197, N-(8-fluoro-2-methylimidazo[1,2-a]pyridin-6-yl)-6-(3-(methylamino)azetidin-1-yl)thieno[2,3-b]pyridine-2-carboxamide] | < 100 nM
Cc1cn2cc(NC(=O)c3cc4ccc(N5CCC6NCC65)nc4s3)cc(F)c2n1 (centres unmarked) [Compound 200, 6-(2,6-diazabicyclo[3.2.0]heptan-2-yl)-N-(8-fluoro-2-methylimidazo[1,2-a]pyridin-6-yl)thieno[2,3-b]pyridine-2-carboxamide] | < 100 nM
Cc1cn2cc(NC(=O)c3cc4ccc(N5CCC6CNCC65)nc4s3)cc(F)c2n1 (centres unmarked) [Compound 201, N-(8-fluoro-2-methylimidazo[1,2-a]pyridin-6-yl)-6-(hexahydropyrrolo[3,4-b]pyrrol-1(2H)-yl)thieno[2,3-b]pyridine-2-carboxamide] | < 100 nM
Cc1cn2cc(NC(=O)c3cc4ccc(N5C[C@H]6CN[C@H]6C5)nc4s3)cc(F)c2n1 [Compound 202, 6-((1R,5R)-3,6-diazabicyclo[3.2.0]heptan-3-yl)-N-(8-fluoro-2-methylimidazo[1,2-a]pyridin-6-yl)thieno[2,3-b]pyridine-2-carboxamide] | < 100 nM
Cc1cn2cc(NC(=O)c3cc4ccc(N5CC(N(C)C)C(C)(C)C5)nc4s3)cc(F)c2n1 (centres unmarked) [Compound 203, 6-(4-(dimethylamino)-3,3-dimethylpyrrolidin-1-yl)-N-(8-fluoro-2-methylimidazo[1,2-a]pyridin-6-yl)thieno[2,3-b]pyridine-2-carboxamide] | < 100 nM
Cc1cn2cc(NC(=O)c3cc4ccc(N5CC(N(C)C)C5)nc4s3)cc(F)c2n1 [Compound 204, 6-(3-(dimethylamino)azetidin-1-yl)-N-(8-fluoro-2-methylimidazo[1,2-a]pyridin-6-yl)thieno[2,3-b]pyridine-2-carboxamide] | < 100 nM
Cc1cn2cc(NC(=O)c3cc4ccc(N5CCC(N6CC7(CC7)C6)C5)nc4s3)cc(F)c2n1 (centres unmarked) [Compound 207, 6-(3-(5-azaspiro[2.3]hexan-5-yl)pyrrolidin-1-yl)-N-(8-fluoro-2-methylimidazo[1,2-a]pyridin-6-yl)thieno[2,3-b]pyridine-2-carboxamide] | < 100 nM
Cc1cn2cc(NC(=O)c3cc4ccc(N5CCC6(CCCN6C)C5)nc4s3)nc(C)c2n1 (centres unmarked) [Compound 208, N-(2,8-dimethylimidazo[1,2-a]pyrazin-6-yl)-6-(1-methyl-1,7-diazaspiro[4.4]nonan-7-yl)thieno[2,3-b]pyridine-2-carboxamide] | < 100 nM
Cc1cn2cc(NC(=O)c3cc4ccc(N5CCC56CCNC6)nc4s3)cc(F)c2n1 (centres unmarked) [Compound 209, N-(8-fluoro-2-methylimidazo[1,2-a]pyridin-6-yl)-6-(1,6-diazaspiro[3.4]octan-1-yl)thieno[2,3-b]pyridine-2-carboxamide] | < 100 nM
Cc1cn2cc(NC(=O)c3cc4ccc(N5CC(N(C)C)C6(CC6)C5)nc4s3)nc(C)c2n1 (centres unmarked) [Compound 211, 6-(7-(dimethylamino)-5-azaspiro[2.4]heptan-5-yl)-N-(2,8-dimethylimidazo[1,2-a]pyrazin-6-yl)thieno[2,3-b]pyridine-2-carboxamide] | < 100 nM
Cc1cn2cc(NC(=O)c3cc4ccc(NC5CN(C)CC5F)nc4s3)nc(C)c2n1 (centres unmarked) [Compound 214, N-(2,8-dimethylimidazo[1,2-a]pyrazin-6-yl)-6-((4-fluoro-1-methylpyrrolidin-3-yl)amino)thieno[2,3-b]pyridine-2-carboxamide] | < 100 nM
COc1cc2nn(C)cc2cc1NC(=O)c1cc2ccc(N3C[C@@H]4CN(C)C[C@@H]43)nc2s1 [Compound 216, N-(6-methoxy-2-methyl-2H-indazol-5-yl)-6-((1S,5R)-3-methyl-3,6-diazabicyclo[3.2.0]heptan-6-yl)thieno[2,3-b]pyridine-2-carboxamide] | < 100 nM
Cc1cn2cc(NC(=O)c3cc4ccc(N5C[C@H]6CN(C)C[C@H]65)nc4s3)cc(F)c2n1 [Compound 217, N-(8-fluoro-2-methylimidazo[1,2-a]pyridin-6-yl)-6-((1R,5S)-3-methyl-3,6-diazabicyclo[3.2.0]heptan-6-yl)thieno[2,3-b]pyridine-2-carboxamide] | < 100 nM
Cc1cn2cc(NC(=O)c3cc4ccc(N5C[C@H]6CN(C)C[C@H]65)nc4s3)nc(C)c2n1 [Compound 218, N-(2,8-dimethylimidazo[1,2-a]pyrazin-6-yl)-6-((1R,5S)-3-methyl-3,6-diazabicyclo[3.2.0]heptan-6-yl)thieno[2,3-b]pyridine-2-carboxamide] | < 100 nM
CNC1CCN(c2ccc3cc(C(=O)Nc4cn5cc(C)nc5c(C)n4)sc3n2)C1 (centres unmarked) [Compound 219, N-(2,8-dimethylimidazo[1,2-a]pyrazin-6-yl)-6-(3-(methylamino)pyrrolidin-1-yl)thieno[2,3-b]pyridine-2-carboxamide] | < 100 nM
CN[C@@H]1CCN(c2ccc3cc(C(=O)Nc4cc(OC)c5nc(C)cn5c4)sc3n2)C1 [Compound 220, (R)-N-(8-methoxy-2-methylimidazo[1,2-a]pyridin-6-yl)-6-(3-(methylamino)pyrrolidin-1-yl)thieno[2,3-b]pyridine-2-carboxamide] | < 100 nM
COc1cc2nn(C)cc2cc1NC(=O)c1cc2ccc(N3CCC4(CN(C)C4)C3)nc2s1 [Compound 221, N-(6-methoxy-2-methyl-2H-indazol-5-yl)-6-(2-methyl-2,6-diazaspiro[3.4]octan-6-yl)thieno[2,3-b]pyridine-2-carboxamide] | < 100 nM
Cc1cn2cc(NC(=O)c3cc4ccc(N5CCC6(CN(C)C6)C5)nc4s3)nc(C)c2n1 [Compound 226, N-(2,8-dimethylimidazo[1,2-a]pyrazin-6-yl)-6-(2-methyl-2,6-diazaspiro[3.4]octan-6-yl)thieno[2,3-b]pyridine-2-carboxamide] | < 100 nM
Cc1cn2cc(NC(=O)c3cc4ccc(N5CCC(C)(N(C)C)C5)nc4s3)nc(C)c2n1 (centres unmarked) [Compound 227, 6-(3-(dimethylamino)-3-methylpyrrolidin-1-yl)-N-(2,8-dimethylimidazo[1,2-a]pyrazin-6-yl)thieno[2,3-b]pyridine-2-carboxamide] | < 100 nM
Cc1cn2cc(NC(=O)c3cc4ccc(N5CCC(N6CCC6)C5)nc4s3)nc(C)c2n1 (centres unmarked) [Compound 228, 6-(3-(azetidin-1-yl)pyrrolidin-1-yl)-N-(2,8-dimethylimidazo[1,2-a]pyrazin-6-yl)thieno[2,3-b]pyridine-2-carboxamide] | < 100 nM
Cc1nc(NC(=O)c2cc3ccc(N4C[C@@H]5CN(C)C[C@@H]54)nc3s2)cc2cn(C)nc12 [Compound 229, N-(2,7-dimethyl-2H-pyrazolo[3,4-c]pyridin-5-yl)-6-((1S,5R)-3-methyl-3,6-diazabicyclo[3.2.0]heptan-6-yl)thieno[2,3-b]pyridine-2-carboxamide] | < 100 nM
